# From patent US12661338B2, “Heterocyclic compounds as modulators of beta-catenin / TCF4 interaction” (AGENCY FOR SCIENCE, TECHNOLOGY AND RESEARCH, priority 2019, dated 2026)
# pEC50, pIC50: −log10 of the molar value. Like-named read-outs stand apart in the source and are kept apart here.
# Tests used:
# Format in all cases: cell-based
# [1] = system: Myc reporter (Luc)-HCT116 cells; experiment: Myc signalling reporter dose response; details: Homo sapiens, HCT-116, 24 hr
# Procedure: (§1) The Myc reporter (Luc)-HCT116 cells were seeded as 25,000 cells in 100 μL assay medium per well in 96-well plates (Corning cat. #3903, Falcon cat. #353072). The assay medium consists of the growth medium without G-418. The next day, 4-fold dilutions of the compounds in DMSO were added to the cells at a final concentration of 1% DMSO. After 24 hr incubation, the viability of the cells was determined with PrestoBlue cell viability reagent while the luciferase reporter activity was determined with Steady-Glo luciferase reagent.
# (§2) The average signal from DMSO treated wells was calculated for each plate, and the signal from each treatment well was normalized against the average DMSO signal from the respective plate. The normalized values were plotted against the concentrations tested using GraphPad Prism 5, and the EC50 values were determined through either three- or four-parameter nonlinear regression.
# HCT116 cells [2] = experiment: Dose response viability of CRC cells (CellTiter-Glo); details: Homo sapiens, HCT-116, 24 hr
# Procedure: (§3) HCT116, DLD-1, and SW480 cells were seeded as 5,000 cells in 100 μL growth medium per well in 96-well plates (Corning cat. #3903). The next day, 5-fold dilutions of the compounds in DMSO were added to the cells at a final concentration of 1% DMSO. After 24 hr incubation, the viability of the cells was determined with CellTiter-Glo luminescent cell viability reagent (Promega cat. #G7573) according to the manufacturer's protocol.
# as §2
# SW480 cells = experiment: as above; details: Homo sapiens, 24 hr
# Procedure: as §3, §2
# DLD-1 cells = experiment: as above; details: Homo sapiens, 24 hr
# Procedure: as §3, §2
# [3] = system: Hippo pathway TEAD reporter cells; experiment: Hippo signalling TEAD reporter dose response; details: 24 hr, activation of the Hippo pathway (decrease of reporter signal)
# Procedure: as §1, with “Hippo TEAD” for “Myc”, “reporter” for “reporter (Luc)-HCT116”, “100,000” for “25,000”, “5-fold” for “4-fold”, “CCK-8” for “PrestoBlue”
# as §2
# [4] = system: Wnt signalling (TOPFlash reporter, STF3A cells); experiment: Wnt STF3A TOPFlash reporter dose response (constitutive Wnt3A)
# Procedure: (§4) Wnt STF reporter cells (HEK 293 cells stably transfected with TOPFlash reporter) and STF3A reporter cells (STF cells with constitutive secretion of Wnt3A) were kind gifts from David Virshup (Duke-NUS Graduate Medical School, Singapore). HCT116, DLD-1, and SW480 cell lines were obtained from ATCC. The Hippo pathway TEAD reporter (cat. #60618) and Myc signalling pathway reporter (cat. #60520) cells lines were purchased from BPS Bioscience, Inc.
# (§5) The Wnt STF3A reporter cells were seeded as 20,000 cells in 100 μL culture medium per well in 96-well plates (Corning cat. #3903, Falcon cat. #353072). The next day, 5-fold dilutions of the compounds in DMSO were added to the cells at a final concentration of 1% DMSO. After 24 hr incubation, the viability of the cells was determined with cell counting kit-8 (CCK-8, Dojindo cat. #CK04) cell viability reagent according to the manufacturer's protocol while the TOPFlash reporter activity was determined with Steady-Glo luciferase reagent.
# as §2
# [5] = system: Wnt target genes in HCT116 CRC cells; experiment: Expression of beta-catenin (CTNNB1) and Wnt target genes in HCT116 CRC cells
# Procedure: The effects of the GB1874 analogues were tested on the expression of Wnt target genes in HCT116 CRC cells.
# STF cells = experiment: Viability (toxicity) of STF reporter cells, CCK-8; details: Table 3; STF reporter cell line
# Procedure: as §5, with “STF” for “STF3A”, “DMSO. The cells were also stimulated with 500 ng/mL recombinant human Wnt3A (RnD systems, cat. #5036-WN-010).” for “DMSO.”
# as §2
# [6] = system: Wnt signalling (TOPFlash reporter, STF cells); experiment: Wnt STF TOPFlash reporter dose response (Wnt3A-stimulated)
# Procedure: as §4
# as §5, with “STF” for “STF3A”, “DMSO. The cells were also stimulated with 500 ng/mL recombinant human Wnt3A (RnD systems, cat. #5036-WN-010).” for “DMSO.”
# as §2
# STF3A cells = experiment: Viability (toxicity) of STF3A reporter cells, CCK-8; details: Table 3; STF3A reporter cell line
# Procedure: as §5, §2
# CRC2001 = experiment: Viability of primary patient-derived colorectal cancer cell line
# CRC1707 = experiment: as above
# CRC2440 = experiment: as above
# CRC1671 = experiment: as above
# CRC2423 = experiment: as above
# CRC2367 = experiment: as above
# CRC1850 = experiment: as above; details: CRC1850, Liver Met
# CRC1837 = experiment: as above; details: CRC1837, Liver Met
# CRC1846 = experiment: as above
# CRC1489 = experiment: as above
# CRC2413 = experiment: as above
# CRC1258 = experiment: as above; details: CRC1258, Liver Met
# CRC1414 = experiment: as above
# CRC1775 = experiment: as above
# CRC1463 = experiment: as above
# CRC948 = experiment: as above
# HCT116 cells [7] = experiment: Proliferation assay (CellTiter-Glo); details: 10 μM daily
# Procedure: HCT 116 cells were seeded as 3,000 cells in 100 μL growth medium per well in 96-well plates (Corning cat. #3903) and allowed to attached overnight. Cells were then treated continuously with compounds at a final concentration of 10 μM, 0.1% DMSO, for 4 days with daily medium change. Cell proliferation each day was determined using CellTiter-Glo luminescent cell viability assay (Promega cat. #G7573) according to the manufacturer's protocol.
# CRC1177 = experiment: Viability of primary patient-derived colorectal cancer cell line
# CRC2255 = experiment: as above
# [8] = Table 3, STF3A reporter cell line, read-out: STF3A Inhibition IC50
# [9] = Table 3, STF reporter cell line, read-out: STF Inhibition IC50
"pIC50 [4, 8]","pIC50 [6, 9]",SMILES,beta-catenin (CTNNB1) gene expression [5],"expression of Wnt target genes AXIN2, BIRC5, BMP4, CCND1 [5]",pIC50 (STF cells),pIC50 (STF3A cells),further results
4.80,4.92,CCOC(=O)C(C)(C)Sc1nnc(COc2ccccc2)n1Cc1ccccc1 [GB1874E],lesser effect,potently inhibit Wnt target genes,4.15,4.00,–
5.92,4.55,Cc1ccccc1OCc1nnc(SCCSc2nnc(COc3ccccc3C)n2Cc2ccccc2)n1Cc1ccccc1 [GB1874A],–,–,< 4.00,< 4.00,–
–,–,"Oc1nc(-c2ccc(C(F)(F)F)cc2)nc2c1CSCC2 [XAV939, reference compound]",–,–,–,–,pEC50 (CRC2001): < 3.60; pEC50 (CRC1707): 3.87; pEC50 (CRC2440): 4.12; pEC50 (CRC1671): < 3.60; pEC50 (CRC2423): 3.60; pEC50 (CRC2367): < 3.60; pEC50 (CRC1850): 3.68; pEC50 (CRC1837): < 3.60; pEC50 (CRC1846): 3.62; pEC50 (CRC1489): 3.98; pEC50 (CRC2413): 3.70; pEC50 (CRC1258): 4.15; pEC50 (CRC1414): < 3.60; pEC50 (CRC1775): < 3.60; pEC50 (CRC1463): 3.60; pEC50 (CRC948): < 3.60; growth of HCT116 cells (HCT116 cells [7]): less effective at inhibiting the growth of HCT116 cells; pEC50 (CRC1177): 3.60; pEC50 (CRC2255): < 3.60
4.34,5.12,CC1CCCC(C)N1C(=O)CSc1nnc(COc2ccccc2)n1Cc1ccccc1 (stereo not drawn) [GB1874C],lesser effect,potently inhibit Wnt target genes,4.12,4.11,–
5.17,5.41,CCc1ccc(OCc2nnc(SC(C)C(=O)C3C4CC5CC(C4)CC3C5)n2Cc2ccccc2)cc1 (stereo not drawn) [GB1874G],lesser effect,potently inhibit Wnt target genes,< 4.00,< 4.00,"pIC50 ([6]; unit M, read-out: STF IC50): 5.41"
–,–,Cc1ccc2nc(NC(=O)CSc3nc4c(c(=O)n3-c3ccccc3)SCC4)sc2c1 [IWP-2],–,–,–,–,growth of HCT116 cells (HCT116 cells [7]): less effective at inhibiting the growth of HCT116 cells
5.00,5.27,Cc1ccc(OCc2nnc(SCC(=O)c3ccc(-c4ccccc4)cc3)n2Cc2ccco2)cc1 [GB1874F],lesser effect,potently inhibit Wnt target genes,4.00,< 4.00,"pIC50 ([6]; unit M, read-out: STF IC50): 5.27"
4.68,4.68,CCOc1ccc(C(=O)CSc2nnc(COc3ccccc3)n2Cc2ccccc2)cc1 [GB1874D],–,–,< 4.00,4.60,–
< 4.00,4.32,O=C(CSc1nnc(Cc2ccccc2)n1Cc1ccco1)NC1CCCC1 [GB1874B],–,–,< 4.00,< 4.00,–
4.96,5.30,CCc1ccc(OCc2nnc(SC3CCCCC3=O)n2C(C)c2ccccc2)cc1 (stereo not drawn) [GB1874H],lesser effect,potently inhibit Wnt target genes,4.31,4.34,–

SMILES,"pIC50 [4, 8]","pIC50 [6, 9]",beta-catenin (CTNNB1) gene expression [5],"expression of Wnt target genes AXIN2, BIRC5, BMP4, CCND1 [5]",pIC50 (STF cells),pIC50 (STF3A cells),further results
"CCc1ccc(-c2nc(CSCC(=O)NCCc3ccccc3)c(C)o2)cc1 [iCRT3, reference compound]",4.38,4.96,lesser effect,potently inhibit Wnt target genes,4.06,4.13,"pIC50 [1]: 4.30; pEC50 (HCT116 cells [2]): 4.41; pEC50 (SW480 cells): 4.19; pEC50 (DLD-1 cells): 4.32; IC50 Hippo (activation) [3]: activated; pIC50 ([3]; read-out: IC50 Hippo (activation)): 5.80; pIC50 ([4]; Table 1, STF3A reporter cells, 24 hr, read-out: IC50 Wnt (STF3A)): 4.19; pIC50 ([6]; Table 1, STF reporter cells, 500 ng/mL Wnt3A, 24 hr, read-out: IC50 Wnt (STF)): 4.57"
